Data from patent US20260117274A1, “ORTHOGONALLY CROSSLINKED PROTEINS, METHODS OF MAKING, AND USES THEREOF” (The Research Foundation for The State University of New York, priority 2022, published 2026).

Experiments:
[1] = cited from earlier work
[2] = NMR-based stability assay toward glutathione; type: physicochemical; conditions: 10 mM glutathione in PBS for 3 days
Description: We envisioned this acyl transfer-based crosslinking could proceed under neutral conditions if we can identify an appropriate genetically encoded leaving group. To this end, we considered a panel of azoles with pKa values ranging from 19.8 to 8.2, and a varying degree of leaving group effect (FIG. 1a). […] Thus, we designed a series of N-carboxy-4-aryl-1,2,3-triazole-containing lysines (CATK-1-7) as well as three analogous triazolyl lysines, CATK-8, -8a, and -9, for comparison purposes (FIG. 1b). For the synthesis of CATK-1-9, the critical step involved the triphosgene-mediated coupling of aryl- or alkyl-substituted triazoles with a protected lysine. While there was no apparent selectivity for N^2-carbamoylated CATKs, the two regioisomers can be readily separated by flash chromatography. After deprotection, CATK-1-9 were obtained in 7-52% yields. […] Since analogous 1,2,4-triazoles have also been used in designing small-molecule probes for serine hydrolases, we synthesized 1,2,4-triazole-based CATK-9 in four steps with an overall yield of 43%.
In our efforts to identify genetically encoded amino acids that are stable under physiological conditions yet reactive upon photoactivation or through proximity effect, we were intrigued by β-lactam, a venerable chemical moiety found in penicillin and other β-lactam class of antibiotics. […]

[3] = molecular target: T1, wild-type PylRS (Methanosarcina mazei, UniProt Q8PWY1); experiment: Fluorescence-based detection of BeLaK incorporation into sfGFP-Q204TAG; type: cell-based; conditions: 1 mM BeLaK
T1 construct: expressed in transfected cells; host or cells: E. coli BL21(DE3) transformed with pEVOL-PylRS
T1 sequence (Q8PWY1 whole entry): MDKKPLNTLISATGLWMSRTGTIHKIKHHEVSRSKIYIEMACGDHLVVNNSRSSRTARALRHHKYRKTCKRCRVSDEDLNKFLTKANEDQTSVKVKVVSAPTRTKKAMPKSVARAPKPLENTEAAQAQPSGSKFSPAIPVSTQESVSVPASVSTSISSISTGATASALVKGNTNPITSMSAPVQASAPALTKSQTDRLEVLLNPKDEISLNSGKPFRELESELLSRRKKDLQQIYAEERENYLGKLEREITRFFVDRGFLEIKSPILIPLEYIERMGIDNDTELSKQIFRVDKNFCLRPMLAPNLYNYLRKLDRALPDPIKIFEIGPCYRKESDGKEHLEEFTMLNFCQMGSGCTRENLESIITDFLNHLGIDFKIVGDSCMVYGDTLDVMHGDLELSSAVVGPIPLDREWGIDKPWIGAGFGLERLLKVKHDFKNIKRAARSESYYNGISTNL
Description: (§1) To identify an aminoacyl-tRNA synthetase/tRNA pair for charging two phenylalanine derivatives, we screened our collection of pyrrolysine-tRNA synthetases (PylRS) (Table 1) using superfolder green fluorescent protein bearing an amber codon at position-204 (sfGFP-Q204TAG) as a reporter without success (FIG. 37). In parallel, to our delight, we found wild-type PylRS efficiently charges BeLaK into sfGFP-Q204TAG, with the cell lysate showing a 75-fold increase in fluorescence over the background, similar to BocK, a known substrate for wild-type PylRS (FIG. 32b). We also obtained the crystal structure of a protected BeLaK analog S11 (FIG. 38). We note the lactam ring forms an intramolecular H-bond with the lysine ε-N—H (FIG. 32a), mimicking the pyrroline ring in pyrrolysine—the native substrate of PylRS.
Site-specific incorporation of BeLaK into sfGFP. BL21(DE3) cells (50 μL) were co-transformed with the pET-sfGFP-Q204TAG and pEVOL-PylRS plasmids using the heat shock method. The cells were recovered in 900 μL SOC at 37° C. for 1 hour before plating onto a Luria-Bertani (LB) agar plate containing 100 μg/mL ampicillin and 34 μg/mL chloramphenicol. A single colony from the plate was used to inoculate 6 mL LB broth containing 100 μg/mL ampicillin and 34 μg/mL chloramphenicol. […] The supernatant was directly used for fluorescence tests after sonication and centrifugation. […]

[4] = Stability under bacterial culture conditions (intact mass of sfGFP mutants)
Description: (§2) To identify pyrrolysine-tRNA synthetase (PylRS) variants that can charge CATKs, we co-transformed BL21(DE3) cells with two plasmids: pEVOL-PylRS encoding PylRS and tRNACUA, and pET-sfGFP-Q204TAG encoding sfGFP bearing an amber codon. We screened a panel of PylRS variants (Table 1), and found one carrying Y306V, L309A, C348F, and Y384F mutations, hereafter referred to as CATKRS, can charge CATK-1, -2, -4, and -7 site-specifically into sfGFP (FIGS. 2b and 10). The incorporations were also confirmed by SDS-PAGE (FIG. 10) and QTOF-LC/MS analyses (FIGS. 2c and 11). Some amount of GSH adducts (˜30%) were detected, presumably due to the high reactivity of CATKs at position-204, a site on sfGFP that is completely solvent exposed.
as §1, with “We note the lactam ring forms an intramolecular H-bond with the lysine ε-N—H (FIG. 32a), mimicking the pyrroline ring in pyrrolysine—the native substrate of PylRS.” left out

[5] = system: HEK293T cells; type: cell-based; conditions: human, 24 h
Description: (§3) To examine whether CATKs are compatible with genetic code expansion in mammalian cells, we first performed a cell viability assay by treating HEK293T cells with CATK-1 and -2 at various concentrations. […] We then cotransfected HEK293T cells with two plasmids: one encodes CATKRS/tRNA^Pyl, and the other encodes the mCherry-TAG-EGFP-HA reporter. The transfected cells were allowed to grow in DMEM supplemented with 10% FBS in the absence or presence of CATK-1.
Cell viability assay. One hundred μL exponentially growing HEK293T cells were seeded into a 96-well plate at a density of 5×10^5 cells per ml. After 24 h, the cells were treated with varying concentrations of CATK amino acids and then incubated at 37° C. for 24 h. Then, 10 μL CCK-8 solution (Dojindo) was added to each well and the cells were further incubated in 37° C. incubator for 1 h. The plates were read immediately using Biotek microtiter plate reader at 450 nm.

[6] = molecular target: T2, CATKRS (Methanosarcina mazei, UniProt Q8PWY1, C348F/L309A/Y306V/Y384F); experiment: Fluorescence-based detection of CATK incorporation into sfGFP-Q204TAG in BL21(DE3) cells; type: cell-based; conditions: 1 mM CATK
T2 construct: expressed in transfected cells; host or cells: E. coli BL21(DE3) transformed with pEVOL-CATKRS
T2 sequence (Q8PWY1 whole entry Y306V/L309A/C348F/Y384F): as the sequence (Q8PWY1 whole entry) above, with Y306V, L309A, C348F, Y384F counted along it
Description: as §2
Site-specific incorporation of CATK into sfGFP. BL21(DE3) cells (50 μL) were co-transformed with the pET-sfGFP-Q204TAG and pEVOL-CATKRS plasmids using the heat shock method. The cells were recovered in 900 μL SOC at 37° C. for 1 hour before plating onto a Luria-Bertani (LB) agar plate containing 100 μg/mL ampicillin and 34 μg/mL chloramphenicol. A single colony from the plate was used to inoculate 6 mL LB broth containing 100 μg/mL ampicillin and 34 μg/mL chloramphenicol. One hundred twenty […] overnight culture was used to inoculate 12 mL LB broth containing the same concentrations of antibiotics. […] The culture was divided into two 6-mL portions. […] The cultures were incubated in an incubator-shaker (37° C., 280 rpm) for 8 hours. […] The supernatant was directly used for fluorescence tests after sonication and centrifugation. […] The mixture was incubated for 2 hours with gentle shaking.

[7] = system: mCherry-TAG-EGFP-HA reporter; experiment: Site-specific incorporation into mCherry-TAG-EGFP in HEK293T cells; type: cell-based, Human; conditions: CATKRS/tRNA^Pyl, 0.5 mM CATK-1, fluorescence microscopy and western blot
Description: as §3
Site-specific incorporation of CATK-1 into mCherry-TAG-EGFP in mammalian cells. Human Embryonic Kidney 293T (HEK293T) cells were seeded in a 12-well plate and grown in DMEM supplemented with 10% FBS (HyClone™ GE Healthcare Life Sciences) and 10 μg/mL Gentamycin (Gibco) and 2 μg/mL Plasmocin at 37° C., 5% CO2 until ˜90% confluency. The medium was replaced with DMEM, and cells were transfected by using polyethylenimine (Sigma-Aldrich) in Opti-MEM® (Gibco) with two plasmids (one encoding CATKRS/tRNAPyl CUA pair and another encoding mCherry-TAG-EGFP-HA). Six hours post-transfection, the medium was replaced with fresh DMEM with 10% FBS in the presence or absence of 0.5 mM CATK-1. After 24 hours, live cell images were recorded using the Lionheart™ FX automated microscope (BioTek). The cells were lysed by modified RIPA buffer (25 mM Tris HCl, pH 7.4, 150 mM NaCl, 1% NP-40, 1% sodium deoxycholate, 0.1% SDS, 1 mM EDTA, 1 mM PSMF). […]

SMILES | stability after incubation with glutathione [2] | site-specific charging into sfGFP by CATKRS [6] | further results
c1cn[nH]n1 [2H-1,2,3-trizole] | – | – | pKa [1]: 9.4
N[C@@H](Cc1ccc(N2CCC2=O)cc1)C(=O)O [BeLaF-2, (S)-2-amino-3-(4-(2-oxoazetidin-1-yl)phenyl)propanoic acid] | remained intact | – | –
N[C@@H](CCCCNC(=O)N1CCC1=O)C(=O)O [BeLaK, N^6-(2-Oxoazetidine-1-carbonyl)-L-lysine] | remained intact | – | increase in fluorescence of cell lysate over the background [3]: 75 fold; stability under bacterial culture conditions [4]: stable under bacterial culture conditions
N[C@@H](CCCCNC(=O)n1ncc(-c2ccccc2)n1)C(=O)O [CATK-1, N^6-(4-Phenyl-2H-1,2,3-triazole-2-carbonyl)-L-lysine] | – | can charge | concentrations at which cytotoxicity was not detected [5]: ≤ 500 µM; incorporation into mCherry-TAG-EGFP-HA [7]: successful CATK-1 incorporation
N[C@@H](CCCCNC(=O)n1ncc(-c2cccs2)n1)C(=O)O [CATK-4, N^6-(4-(Thiophen-2-yl)-2H-1,2,3-triazole-2-carbonyl)-L-lysine] | – | can charge | –
Cn1cccc1-c1cnn(C(=O)NCCCC[C@H](N)C(=O)O)n1 [CATK-7, N^6-(4-(1-Methyl-1H-pyrrol-2-yl)-2H-1,2,3-triazole-2-carbonyl)-L-lysine] | – | can charge | –
